In the supplement of paper PMC10307832:

Columns and labels:
Assay in all cases: relative viability (nuclei count vs DMSO), 5 days (fraction); higher = more cells survive
NCI-H2405 = tested on: NCI-H2405
How it was run: (§1)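 Cells from lung cancer lines were seeded into 1536-well plates and, one day later, dosed by pin tool. Treatments were either a single drug or a fixed dose of an anchor drug with five library-drug doses (not always all listed) in √10 steps. After 5 days, nuclei were stained in a one-step fixation (final 0.05% Triton X-100, 1% formaldehyde, 1 ug/ml Hoechst) and counted on 4× images, and relative viability is the treated-to-vehicle nuclei ratio, as the median of duplicate plates.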

A-427 = tested on: A-427
How it was run: as §1

EMC-BAC-2 = tested on: EMC-BAC-2
How it was run: as §1

HCC-78 = tested on: HCC-78
How it was run: as §1

NCI-H1993 = tested on: NCI-H1993
How it was run: as §1

NCI-H838 = tested on: NCI-H838
How it was run: as §1

HCC-15 = tested on: HCC-15
How it was run: as §1

NCI-H23 = tested on: NCI-H23
How it was run: as §1

LC-2-ad = tested on: LC-2-ad
How it was run: as §1

ChaGo-K-1 = tested on: ChaGo-K-1
How it was run: as §1

HCC-366 = tested on: HCC-366
How it was run: as §1

HARA = tested on: HARA
How it was run: as §1

NCI-H1944 = tested on: NCI-H1944
How it was run: as §1

NCI-H1734 = tested on: NCI-H1734
How it was run: as §1

ABC-1 = tested on: ABC-1
How it was run: as §1

NCI-H1793 = tested on: NCI-H1793
How it was run: as §1

NCI-H2126 = tested on: NCI-H2126
How it was run: as §1

**Q.** `CC1(C)CCC(c2ccc(Cl)cc2)=C(CN2CCN(c3ccc(C(=O)NS(=O)(=O)c4ccc(N[C@H](CCN5CCOCC5)CSc5ccccc5)c(S(=O)(=O)C(F)(F)F)c4)cc3)CC2)C1` [Navitoclax] + NC(=O)Nc1cc(-c2cccc(F)c2)sc1C(=O)N[C@H]1CCCNC1 [AZD7762] (partner 0.2 µM) was tested. Which relative viability (NCI-H2405; first compound 0.005 µM) did it give?
**A.** 0.703

**Q.** And the relative viability (NCI-H2405; first compound 0.01581 µM)?
**A.** 0.857

**Q.** And the relative viability (NCI-H2405; first compound 0.05 µM)?
**A.** 0.622

**Q.** And the relative viability (NCI-H2405; first compound 0.1581 µM)?
**A.** 0.698

**Q.** What about the relative viability (NCI-H2405; first compound 0.5 µM) of the same compound?
**A.** 0.653

**Q.** And the relative viability (A-427; first compound 0.005 µM)?
**A.** 0.79

**Q.** What about the relative viability (A-427; first compound 0.01581 µM) of the same compound?
**A.** 0.822

**Q.** And the relative viability (A-427; first compound 0.05 µM)?
**A.** 0.639

**Q.** And the relative viability (A-427; first compound 0.1581 µM)?
**A.** 0.722

**Q.** And the relative viability (A-427; first compound 0.5 µM)?
**A.** 0.718

**Q.** And the relative viability (EMC-BAC-2; first compound 0.005 µM)?
**A.** 1.03

**Q.** And the relative viability (EMC-BAC-2; first compound 0.01581 µM)?
**A.** 1.26

**Q.** What about the relative viability (EMC-BAC-2; first compound 0.05 µM) of the same compound?
**A.** 1.07

**Q.** And the relative viability (EMC-BAC-2; first compound 0.1581 µM)?
**A.** 1.09

**Q.** What about the relative viability (EMC-BAC-2; first compound 0.5 µM) of the same compound?
**A.** 1.13

**Q.** And the relative viability (HCC-78; first compound 0.005 µM)?
**A.** 0.985

**Q.** What about the relative viability (HCC-78; first compound 0.01581 µM) of the same compound?
**A.** 0.612

**Q.** And the relative viability (HCC-78; first compound 0.05 µM)?
**A.** 0.508

**Q.** And the relative viability (HCC-78; first compound 0.1581 µM)?
**A.** 0.607

**Q.** And the relative viability (HCC-78; first compound 0.5 µM)?
**A.** 0.667

**Q.** What about the relative viability (NCI-H1993; first compound 0.005 µM) of the same compound?
**A.** 0.738

**Q.** What about the relative viability (NCI-H1993; first compound 0.01581 µM) of the same compound?
**A.** 1.05

**Q.** And the relative viability (NCI-H1993; first compound 0.05 µM)?
**A.** 0.552

**Q.** What about the relative viability (NCI-H1993; first compound 0.1581 µM) of the same compound?
**A.** 0.721

**Q.** And the relative viability (NCI-H1993; first compound 0.5 µM)?
**A.** 0.641

**Q.** What about the relative viability (NCI-H838; first compound 0.005 µM) of the same compound?
**A.** 0.971

**Q.** What about the relative viability (NCI-H838; first compound 0.01581 µM) of the same compound?
**A.** 0.869

**Q.** What about the relative viability (NCI-H838; first compound 0.05 µM) of the same compound?
**A.** 0.937

**Q.** What about the relative viability (NCI-H838; first compound 0.1581 µM) of the same compound?
**A.** 0.97

**Q.** What about the relative viability (NCI-H838; first compound 0.5 µM) of the same compound?
**A.** 0.957

**Q.** What about the relative viability (HCC-15; first compound 0.005 µM) of the same compound?
**A.** 0.868

**Q.** What about the relative viability (HCC-15; first compound 0.01581 µM) of the same compound?
**A.** 1.2

**Q.** What about the relative viability (HCC-15; first compound 0.05 µM) of the same compound?
**A.** 0.838

**Q.** And the relative viability (HCC-15; first compound 0.1581 µM)?
**A.** 1.03

**Q.** And the relative viability (HCC-15; first compound 0.5 µM)?
**A.** 1.05

**Q.** What about the relative viability (NCI-H23; first compound 0.005 µM) of the same compound?
**A.** 0.28

**Q.** And the relative viability (NCI-H23; first compound 0.01581 µM)?
**A.** 0.33

**Q.** And the relative viability (NCI-H23; first compound 0.05 µM)?
**A.** 0.291

**Q.** And the relative viability (NCI-H23; first compound 0.1581 µM)?
**A.** 0.195

**Q.** What about the relative viability (NCI-H23; first compound 0.5 µM) of the same compound?
**A.** 0.23

**Q.** And the relative viability (LC-2-ad; first compound 0.005 µM)?
**A.** 0.835

**Q.** And the relative viability (LC-2-ad; first compound 0.01581 µM)?
**A.** 0.957

**Q.** What about the relative viability (LC-2-ad; first compound 0.05 µM) of the same compound?
**A.** 0.796

**Q.** What about the relative viability (LC-2-ad; first compound 0.1581 µM) of the same compound?
**A.** 0.815

**Q.** What about the relative viability (LC-2-ad; first compound 0.5 µM) of the same compound?
**A.** 0.822

**Q.** What about the relative viability (ChaGo-K-1; first compound 0.005 µM) of the same compound?
**A.** 0.879

**Q.** What about the relative viability (ChaGo-K-1; first compound 0.01581 µM) of the same compound?
**A.** 0.875

**Q.** What about the relative viability (ChaGo-K-1; first compound 0.05 µM) of the same compound?
**A.** 0.655

**Q.** And the relative viability (ChaGo-K-1; first compound 0.1581 µM)?
**A.** 0.883

**Q.** And the relative viability (ChaGo-K-1; first compound 0.5 µM)?
**A.** 0.803

**Q.** What about the relative viability (HCC-366; first compound 0.005 µM) of the same compound?
**A.** 0.27

**Q.** And the relative viability (HCC-366; first compound 0.01581 µM)?
**A.** 0.296

**Q.** What about the relative viability (HCC-366; first compound 0.1581 µM) of the same compound?
**A.** 0.197

**Q.** What about the relative viability (HCC-366; first compound 0.5 µM) of the same compound?
**A.** 0.214

**Q.** What about the relative viability (HARA; first compound 0.005 µM) of the same compound?
**A.** 0.385

**Q.** What about the relative viability (HARA; first compound 0.01581 µM) of the same compound?
**A.** 0.444

**Q.** What about the relative viability (HARA; first compound 0.05 µM) of the same compound?
**A.** 0.212

**Q.** What about the relative viability (HARA; first compound 0.1581 µM) of the same compound?
**A.** 0.228

**Q.** What about the relative viability (HARA; first compound 0.5 µM) of the same compound?
**A.** 0.32

**Q.** What about the relative viability (NCI-H1944; first compound 0.005 µM) of the same compound?
**A.** 0.52

**Q.** And the relative viability (NCI-H1944; first compound 0.01581 µM)?
**A.** 0.637

**Q.** And the relative viability (NCI-H1944; first compound 0.1581 µM)?
**A.** 0.489

**Q.** What about the relative viability (NCI-H1944; first compound 0.5 µM) of the same compound?
**A.** 0.582

**Q.** And the relative viability (NCI-H1734; first compound 0.005 µM)?
**A.** 0.533

**Q.** What about the relative viability (NCI-H1734; first compound 0.01581 µM) of the same compound?
**A.** 0.555

**Q.** What about the relative viability (NCI-H1734; first compound 0.1581 µM) of the same compound?
**A.** 0.543

**Q.** And the relative viability (NCI-H1734; first compound 0.5 µM)?
**A.** 0.506

**Q.** What about the relative viability (ABC-1; first compound 0.005 µM) of the same compound?
**A.** 0.816

**Q.** And the relative viability (ABC-1; first compound 0.01581 µM)?
**A.** 1.22

**Q.** And the relative viability (ABC-1; first compound 0.1581 µM)?
**A.** 0.687

**Q.** What about the relative viability (ABC-1; first compound 0.5 µM) of the same compound?
**A.** 0.72

**Q.** What about the relative viability (NCI-H1793; first compound 0.005 µM) of the same compound?
**A.** 0.488

**Q.** What about the relative viability (NCI-H1793; first compound 0.01581 µM) of the same compound?
**A.** 0.613

**Q.** And the relative viability (NCI-H1793; first compound 0.1581 µM)?
**A.** 0.402

**Q.** What about the relative viability (NCI-H1793; first compound 0.5 µM) of the same compound?
**A.** 0.246

**Q.** What about the relative viability (NCI-H2126; first compound 0.005 µM) of the same compound?
**A.** 1.06

**Q.** What about the relative viability (NCI-H2126; first compound 0.01581 µM) of the same compound?
**A.** 0.931

**Q.** What about the relative viability (NCI-H2126; first compound 0.05 µM) of the same compound?
**A.** 1.05

**Q.** And the relative viability (NCI-H2126; first compound 0.1581 µM)?
**A.** 0.915

**Q.** What about the relative viability (NCI-H2126; first compound 0.5 µM) of the same compound?
**A.** 0.947
